Reference: ChEMBL document CHEMBL1126778, “Adenosine A1 antagonists. 3. Structure-activity relationships on amelioration against scopolamine- or N6-((R)-phenylisopropyl)adenosine-induced cognitive disturbance” (J Med Chem, 1993)

Tests used:
[1] = system: Mus musculus; experiment: Retention time in (R)-PIA) induced avoidance test (performed in mice) for antagonistic activity after p.o. administration of 1.25 mg/kg; assay type: functional, organism-based; set-up: dose 1.25 mg/kg
[2] = system: Rattus norvegicus; experiment: Retention time in Scopolamine induced avoidance test (performed in rat) for antagonistic activity after peroral administration of 1.25 mg/kg; assay type: functional, organism-based; set-up: dose 1.25 mg/kg
[3] = system: Mus musculus; experiment: Retention time in (R)-PIA) induced avoidance test (performed in mice) for antagonistic activity after peroral administration of 0.31 mg/kg; assay type: functional, organism-based; set-up: dose 0.31 mg/kg
[4] = system: Mus musculus; experiment: Retention time in (R)-PIA) induced avoidance test (performed in mice) for antagonistic activity after peroral administration of 5 mg/kg; assay type: functional, organism-based; set-up: dose 5 mg/kg
[5] = system: Rattus norvegicus; experiment: Acquisition time in Scopolamine induced avoidance test (performed in rat) for antagonistic activity after peroral administration of 1.25 mg/kg (n=20); assay type: functional; details: route oral
[6] = system: Rattus norvegicus; experiment: Retention time in Scopolamine induced avoidance test (performed in rat) for antagonistic activity after peroral administration of 20 mg/kg (n=19); assay type: functional, organism-based; set-up: dose 20 mg/kg
[7] = system: Mus musculus; experiment: Acquisition time in (R)-PIA) induced avoidance test (performed in mice) for antagonistic activity after peroral administration of 0.02 mg/kg; details: route oral
[8] = system: Rattus norvegicus; experiment: Retention time in Scopolamine induced avoidance test (performed in […]) for antagonistic activity after peroral administration of 5 mg/kg; assay type: functional, organism-based; set-up: dose 5 mg/kg
[9] = system: Rattus norvegicus; experiment: Acquisition time in Scopolamine induced avoidance test (performed in rat) for antagonistic activity after p.o. administration of 0.08 mg/kg; assay type: functional; details: route oral
[10] = system: Mus musculus; experiment: Acquisition time in (R)-PIA) induced avoidance test (performed in mice) for antagonistic activity after peroral administration of 5 mg/kg; assay type: functional; details: route oral
[11] = molecular target: Adenosine A2 receptor (Rattus norvegicus, UniProt P29276+P30543); experiment: Binding affinity at Adenosine A2 receptor from rat striatal membranes by N-[3H] ethyladenosin-5'- uronamide displacement.
[12] = system: Rattus norvegicus; experiment: Acquisition time in Scopolamine induced avoidance test (performed in rat) for antagonistic activity after p.o. administration of 0.31 mg/kg; assay type: functional; details: route oral
[13] = system: Mus musculus; experiment: Acquisition time in (R)-PIA) induced avoidance test (performed in mice) for antagonistic activity after peroral administration of 0.08 mg/kg; assay type: functional; details: route oral
[14] = system: Mus musculus; experiment: Acquisition time in (R)-PIA) induced avoidance test (performed in mice) for antagonistic activity after p.o. administration of 0.31 mg/kg; assay type: functional; details: route oral
[15] = system: Mus musculus; experiment: Retention time in (R)-PIA) induced avoidance test (performed in mice) for antagonistic activity after peroral administration of 0.02 mg/kg
[16] = system: Rattus norvegicus; experiment: Retention time in Scopolamine induced avoidance test (performed in rat) for antagonistic activity after p.o. administration of 0.08 mg/kg; assay type: functional, organism-based; set-up: dose 0.08 mg/kg
[17] = system: Rattus norvegicus; experiment: Acquisition time in Scopolamine induced avoidance test (performed in rat) for antagonistic activity after peroral administration of 20 mg/kg; assay type: functional; details: route oral
[18] = system: Mus musculus; experiment: Retention time in (R)-PIA) induced avoidance test (performed in mice) for antagonistic activity after peroral administration of 0.08 mg/kg; assay type: functional, organism-based; set-up: dose 0.08 mg/kg
[19] = system: Rattus norvegicus; experiment: Acquisition time in Scopolamine induced avoidance test (performed in rat) for antagonistic activity after p.o. administration of 5 mg/kg; assay type: functional; details: route oral
[20] = system: Mus musculus; experiment: Acquisition time in (R)-PIA) induced avoidance test (performed in mice) for antagonistic activity after p.o. administration of 1.25 mg/kg; assay type: functional; details: route oral
[21] = system: Rattus norvegicus; experiment: Retention time in Scopolamine induced avoidance test (performed in rat) for antagonistic activity after p.o. administration of 0.31 mg/kg; assay type: functional, organism-based; set-up: dose 0.31 mg/kg
[22] = system: Mus musculus; experiment: Retention time in (R)-PIA) induced avoidance test (performed in mice) for antagonistic activity after peroral administration of 0.31 mg/kg (n=15) (P<0.005); assay type: functional, organism-based; set-up: dose 0.31 mg/kg
[23] = system: Mus musculus; experiment: Retention time in (R)-PIA) induced avoidance test (performed in mice) for antagonistic activity after peroral administration of 0.08 mg/kg (n=15) (P<0.01); assay type: functional, organism-based; set-up: dose 0.08 mg/kg
[24] = system: Mus musculus; experiment: Acquisition time in (R)-PIA) induced avoidance test (performed in mice) for antagonistic activity after peroral administration of 1.25 mg/kg (n=15); assay type: functional; details: route oral
[25] = system: Mus musculus; experiment: Retention time in (R)-PIA) induced avoidance test (performed in mice) for antagonistic activity after peroral administration of 1.25 mg/kg (n=15) (P<0.01); assay type: functional, organism-based; set-up: dose 1.25 mg/kg
[26] = system: Mus musculus; experiment: Tested for locomotor activity after oral administration of 10 mg/kg for 120 min; assay type: functional
[27] = system: Rattus norvegicus; experiment: Acquisition time in Scopolamine induced avoidance test (performed in rat) for antagonistic activity after peroral administration of 0.08 mg/kg (n=13); assay type: functional; details: route oral
[28] = system: Rattus norvegicus; experiment: Retention time in Scopolamine induced avoidance test (performed in rat) for antagonistic activity after peroral administration of 0.31 mg/kg (n=13) (P<0.005); assay type: functional, organism-based; set-up: dose 0.31 mg/kg
[29] = system: Mus musculus; experiment: Acquisition time in (R)-PIA) induced avoidance test (performed in mice) for antagonistic activity after peroral administration of 0.31 mg/kg (n=15); assay type: functional; details: route oral
[30] = system: Mus musculus; experiment: Tested for locomotor activity after oral administration of 40 mg/kg for 120 min; assay type: functional
[31] = system: Rattus norvegicus; experiment: Acquisition time in Scopolamine induced avoidance test (performed in rat) for antagonistic activity after peroral administration of 0.31 mg/kg (n=13); assay type: functional; details: route oral
[32] = system: Rattus norvegicus; experiment: Retention time in Scopolamine induced avoidance test (performed in rat) for antagonistic activity after peroral administration of 5 mg/kg; assay type: functional, organism-based; set-up: dose 5 mg/kg
[33] = system: Mus musculus; experiment: Tested for locomotor activity after oral administration of 6.25 mg/kg for 120 min; assay type: functional
[34] = system: Rattus norvegicus; experiment: Acquisition time in Scopolamine induced avoidance test (performed in rat) for antagonistic activity after peroral administration of 1.25 mg/kg; assay type: functional; details: route oral
[35] = system: Rattus norvegicus; experiment: Acquisition time in Scopolamine induced avoidance test (performed in rat) for antagonistic activity after peroral administration of 5 mg/kg; assay type: functional; details: route oral
[36] = system: Rattus norvegicus; experiment: Retention time in Scopolamine induced avoidance test (performed in rat) for antagonistic activity after peroral administration of 0.08 mg/kg (n=13) (P<0.01); assay type: functional, organism-based; set-up: dose 0.08 mg/kg
[37] = system: Rattus norvegicus; experiment: Acquisition time in Scopolamine induced avoidance test (performed in rat) for antagonistic activity after peroral administration of 0.02 mg/kg (n=13); assay type: functional; details: route oral
[38] = system: Rattus norvegicus; experiment: Retention time in Scopolamine induced avoidance test (performed in rat) for antagonistic activity after peroral administration of 0.02 mg/kg (n=13); assay type: functional, organism-based; set-up: dose 0.02 mg/kg
[39] = system: Mus musculus; experiment: Acquisition time in (R)-PIA) induced avoidance test (performed in mice) for antagonistic activity after peroral administration of 0.08 mg/kg (n=15); assay type: functional; details: route oral
[40] = molecular target: Adenosine receptor A1, Rattus norvegicus (UniProt P25099); experiment: Binding affinity against Adenosine A1 receptor from rat forebrain membranes with N6-[3H]- cyclohexyladenosine
[41] = molecular target: T1, Adenosine receptor A1 (Cavia porcellus, UniProt P47745); experiment: Binding affinity against Adenosine A1 receptor from guinea pig forebrain membranes by N6-[3H]- cyclohexyladenosine displacement.
T1 sequence (P47745 whole entry): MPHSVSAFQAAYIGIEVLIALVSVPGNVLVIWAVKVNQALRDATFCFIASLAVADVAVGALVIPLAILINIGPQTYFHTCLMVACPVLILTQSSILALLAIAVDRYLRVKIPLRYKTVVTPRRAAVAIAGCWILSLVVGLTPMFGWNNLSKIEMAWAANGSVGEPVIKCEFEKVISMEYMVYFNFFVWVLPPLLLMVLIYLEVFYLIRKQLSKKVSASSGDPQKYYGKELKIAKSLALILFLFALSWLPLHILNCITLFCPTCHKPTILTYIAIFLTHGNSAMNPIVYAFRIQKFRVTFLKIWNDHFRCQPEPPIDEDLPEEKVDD

[42] = system: Mus musculus; experiment: Tested for locomotor activity after oral administration of 5 mg/kg for 120 min; assay type: functional
[43] = system: Rattus norvegicus; experiment: Retention time in Scopolamine induced avoidance test (performed in rat) for antagonistic activity after peroral administration of 20 mg/kg (n=10); assay type: functional, organism-based; set-up: dose 20 mg/kg
[44] = system: Mus musculus; experiment: Tested for locomotor activity after oral administration of 1.25 mg/kg for 120 min; assay type: functional

Chain of Adenosine receptor A1, Rattus norvegicus (P25099 whole entry, looked up): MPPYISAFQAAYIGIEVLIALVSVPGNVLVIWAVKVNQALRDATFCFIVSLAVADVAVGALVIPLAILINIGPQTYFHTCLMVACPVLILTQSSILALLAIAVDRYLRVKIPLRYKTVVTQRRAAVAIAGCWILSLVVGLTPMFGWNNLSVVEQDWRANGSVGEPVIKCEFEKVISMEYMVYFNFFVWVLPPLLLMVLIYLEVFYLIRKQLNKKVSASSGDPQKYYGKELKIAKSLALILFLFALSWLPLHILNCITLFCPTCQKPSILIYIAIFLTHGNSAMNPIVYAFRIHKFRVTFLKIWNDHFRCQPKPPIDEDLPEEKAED

Row | SMILES | Retention time [1] | Retention time [2] | Retention time [3] | Retention time [4] | Acquisition time [7] | Retention time [8] | Acquisition time [9] | Acquisition time [10] | Acquisition time [12] | Acquisition time [13] | Acquisition time [14] | Retention time [15] | Retention time [16] | Acquisition time [17] | Retention time [18] | Acquisition time [19] | Acquisition time [20] | Retention time [21] | Acquisition time [34] | also measured
1 | CCCn1c(=O)c2nc(C3CCC(=O)C3)[nH]c2n(CCc2ccc(N)cc2)c1=O (stereo not given) | 19.1 s | 163 s | 23.4 s | 67.7 s | 14.2 s | 108 s | 10.5 s | 12.9 s | 13.1 s | 16.4 s | 17.5 s | 73.9 s | 119 s | 13.6 s | 18.7 s | 10.2 s | 14.6 s | 109 s | – | Acquisition time [5]: 12.1 s; Retention time [6]: 117 s; Ki [11]: > 100000 nM
2 | CCCn1c(=O)c2[nH]c(C3CCCC3)nc2n(CCC)c1=O [1,3-DIPROPYL-8-CYCLOPENTYLXANTHINE [DPCPX]] | – | – | – | 433 s | – | – | – | 18.4 s | – | – | – | – | – | – | – | – | – | – | 12.4 s | Retention time [22]: 456 s; Retention time [23]: 190 s; Acquisition time [24]: 20.5 s; Retention time [25]: 272 s; Locomotor activity [26]: 4679 Counts; Acquisition time [27]: 21.5 s; Retention time [28]: 273 s; Acquisition time [29]: 19.1 s; Locomotor activity [30]: 5257 Counts; Acquisition time [31]: 24.7 s; Retention time [32]: 68.7 s; Locomotor activity [33]: 3826 Counts; Acquisition time [35]: 14.6 s; Retention time [36]: 105 s; Acquisition time [37]: 19.8 s; Retention time [38]: 32 s; Acquisition time [39]: 19.4 s
3 | CCCn1c(=O)c2[nH]c(C3CCCC3)nc2n(CCc2ccc(N)cc2)c1=O | – | – | – | – | – | – | – | – | – | – | – | – | – | – | – | – | – | – | – | Ki [40]: 0.23 nM; Ki [41]: 5.6 nM
4 | CCCN1C(=O)N2CC(CC)N=C2c2[nH]c(C34CC5CC(CC3C5)C4)nc21 (racemic) | 231 s | 40.8 s | 292 s | 277 s | 23 s | 66.3 s | 21.3 s | 24.9 s | 17.3 s | 23.5 s | 22.7 s | 168 s | 251 s | 26.6 s | 196 s | 22.5 s | 21.2 s | 221 s | 14.1 s | Locomotor activity [42]: 6907 Counts; Retention time [43]: 21 s; Locomotor [44]: 5761 Counts
